Reference: publication PMC2746281 (PLoS ONE, 2009)

Tests used:
[1] = test system: human cord-blood-derived mast cells (CBMC); experiment: FcεRI-mediated degranulation (β-hexosaminidase release) of IgE-anti IgE activated CBMC; assay type: cell-based; conditions: Mast cell, 0.5 h, 30 minutes of stimulation
Experimental: (§1) (see Supporting Information; Methods S1). […] Assays of β-hexosaminidase release and TNF-α release were made by stimulating the CBMC with 1 µg/ml of goat anti-human IgE (Vector Laboratories) for 30 minutes or 4 hours, respectively. β-hexosaminidase was measured in the supernatant and in the sonicated cell pellets and its net release calculated. For TNF-α determination, the cell-free supernatants were collected by centrifugation and frozen at −80°C until determination of mediator content by the use of a specific ELISA kit according to manufacturer's instructions (Coulter, France). All assays were performed in duplicate and counts were repeated twice for each well.
(§2) Human CBMC were produced by long-term culture of CD34+ progenitors purified from normal cord-blood. […] At the beginning of the culture, rhIL-3 (1 ng/ml) (R&D Systems Europe, France) was also added to induce maximal expansion of haematopoietic progenitors. After 3 days the IL-3 was removed and 4 days later cells were transferred to a complete serum-free medium containing rmSCF at 100 ng/ml, which was renewed every 7 days thereafter. After 8 weeks in culture ≥99% of the cells were identified as being mast cells by May-Grünwald-Giemsa staining of cytocentrifuged samples.

[2] = test system: human cord-blood-derived mast cells (CBMC); experiment: TNF-α release by IgE-anti IgE-activated CBMC (ELISA); assay type: cell-based; conditions: Mast cell, 4 hours of stimulation
Experimental: as §1, §2

[3] = test system: Salmonella typhimurium and Escherichia coli; conditions: cited from earlier work

Cc1ccc(NC(=O)c2ccc(CN3CCN(C)CC3)cc2)cc1Nc1nccc(-c2cccnc2)n1 [imatinib, reference compound]
inhibition at 0.1 µM ([1]; 0.1 µM): 2%
inhibition at 1 µM ([1]; 1.0 µM): 8%
inhibition at 10 µM ([1]; 10 µM): 19%
inhibition at 0.1 µM ([2]; 0.1 µM): 4%
inhibition at 1 µM ([2]; 1.0 µM): 24%
inhibition at 10 µM ([2]; 10 µM): 45%
bacterial reverse mutation test [3]: positive
